Measurements reported in US20230339878A1, “SLC26A3 INHIBITORS AND USE THEREOF” (THE REGENTS OF THE UNIVERSITY OF CALIFORNIA, priority 2018, published 2023).
“Also recorded” adds a separate entry of the source.

Experiments:
[1] = target: T1, CFTR (Homo sapiens, UniProt P13569); assay: Selectivity: CFTR (forskolin stimulated) YFP assay; type: cell-based; conditions: 10 µM
T1 construct: expressed in transfected cells; host or cells: FRT cells expressing YFP and CFTR
From the text: To investigate Compound A1 selectivity, transport assays were done on a panel of SLC26-family homologs, and other relevant epithelial ion transporters and channels. […] In separate studies, to investigate possible action of Compound A1 on multiple ion transporters and channels in a human epithelium, human bronchial epithelial (HBE) cells were studied by short-circuit current, with successive additions of amiloride (to block the epithelial sodium channel ENaC), forskolin, CFTRinh-172 (to block CFTR), and ATP (to activate the Ca^2+-activated chloride channel, CaCC) (FIG. 5C).
YFP-based assays of CFTR, pendrin and TMEM16A were as described. HEK cells transfected to express YFP and SLC26A3, slc26a6 or slc26a9 were functionally assayed using a Cl^-/I^- exchange protocol. Assays of Cl^-/HCO3^- exchange were done using BCECF as an intracellular pH indicator as described for pendrin. […]
HEK293 cells transfected with pIRES-YFP-slc26a9 were plated in 96-well black-walled, clear-bottom tissue culture plates (Corning Life Sciences, Tewksbury, MA) after coating with FNC Coating Mix (AthenaES, Baltimore, MD). […] Assays of slc26a9-mediated anion exchange were done by initially recording YFP fluorescence prior to addition of 100 µL of NaI-substituted PBS to test wells, with the initial rate of Cl^-/I^- exchange deduced from fluorescence intensity by single exponential regression. […]

[2] = test system: mouse distal colonic closed loops; assay: Closed distal colonic loop fluid absorption in mice; type: in vivo; conditions: 10 µM intraluminal, 60 min
Method: Female CD1 mice (age 8-10 weeks) were given free access to Pedialyte (per liter: Na^+ 45 mEq, Cl^- 35 mEq, K^+ 20 mEq, dextrose 25 g; Abbott, Abbot Park, IL) but not solid food for 48 h before experiments. Mice were treated with 500 µL mineral oil once a day rectally (last dose 12 h before surgeries) during this period to evacuate the colon. Closed intestinal loops were isolated as described. Mice were anesthetized with isoflurane and body temperature was maintained during surgery at 36-38° C. using a heating pad. A small abdominal incision was made to expose the distal colon, and one closed distal colonic loop (length 1.5-2 cm) was isolated with sutures in each mouse. Loops were injected with 100 µL phosphate-buffered saline (PBS, pH: 7.4, in mM: 137 NaCl, 2.7 KCl, 8 Na2HPO4, 1.8 KH2PO4, 1 CaCl2, 0.5 MgCl2) without and with 10 µM Compound A1 and/or 10 µM tenapanor (MedChemExpress, Monmouth Junction, NJ). The abdominal incision was closed with sutures, and mice were allowed to recover from anesthesia. Colonic loops were removed at 0 and 60 min (in separate mice) and loop length and weight were measured to quantify fluid absorption. Luminal fluid was emptied with a syringe and pH was measured immediately using AB15 pH Meter (Thermo Fisher Scientific, South San Francisco, CA). In separate studies, mid-jejunal loops (length 2-3 cm, 3-4 loops per mouse) were isolated as described above, injected with 100 µL PBS without or with 10 µM Compound A1 and/or 10 µM tenapanor, and excised at 0 and 30 min to measure loop length and weight.
Closed intestinal loop studies in mice were done to study effects of Compound A1 on fluid absorption. […] Changes in luminal pH were also determined as a semi-quantitative measure of slc26a3-facilitated HCO3^- secretion / C1^- absorption, with slc26a3 inhibition predicted to reduce luminal fluid alkalinization. For these experiments, a phosphate-buffered solution (PBS) without HCO3^- / CO2 was used to avoid confounding effects of luminal carbonic anhydrases. […] Administration of the NHE3 (Na^+/H^+ exchanger 3) inhibitor tenapanor had no effect on weight/length ratio or luminal pH in distal colonic loops.

T1 sequence (P13569 whole entry, species assumed): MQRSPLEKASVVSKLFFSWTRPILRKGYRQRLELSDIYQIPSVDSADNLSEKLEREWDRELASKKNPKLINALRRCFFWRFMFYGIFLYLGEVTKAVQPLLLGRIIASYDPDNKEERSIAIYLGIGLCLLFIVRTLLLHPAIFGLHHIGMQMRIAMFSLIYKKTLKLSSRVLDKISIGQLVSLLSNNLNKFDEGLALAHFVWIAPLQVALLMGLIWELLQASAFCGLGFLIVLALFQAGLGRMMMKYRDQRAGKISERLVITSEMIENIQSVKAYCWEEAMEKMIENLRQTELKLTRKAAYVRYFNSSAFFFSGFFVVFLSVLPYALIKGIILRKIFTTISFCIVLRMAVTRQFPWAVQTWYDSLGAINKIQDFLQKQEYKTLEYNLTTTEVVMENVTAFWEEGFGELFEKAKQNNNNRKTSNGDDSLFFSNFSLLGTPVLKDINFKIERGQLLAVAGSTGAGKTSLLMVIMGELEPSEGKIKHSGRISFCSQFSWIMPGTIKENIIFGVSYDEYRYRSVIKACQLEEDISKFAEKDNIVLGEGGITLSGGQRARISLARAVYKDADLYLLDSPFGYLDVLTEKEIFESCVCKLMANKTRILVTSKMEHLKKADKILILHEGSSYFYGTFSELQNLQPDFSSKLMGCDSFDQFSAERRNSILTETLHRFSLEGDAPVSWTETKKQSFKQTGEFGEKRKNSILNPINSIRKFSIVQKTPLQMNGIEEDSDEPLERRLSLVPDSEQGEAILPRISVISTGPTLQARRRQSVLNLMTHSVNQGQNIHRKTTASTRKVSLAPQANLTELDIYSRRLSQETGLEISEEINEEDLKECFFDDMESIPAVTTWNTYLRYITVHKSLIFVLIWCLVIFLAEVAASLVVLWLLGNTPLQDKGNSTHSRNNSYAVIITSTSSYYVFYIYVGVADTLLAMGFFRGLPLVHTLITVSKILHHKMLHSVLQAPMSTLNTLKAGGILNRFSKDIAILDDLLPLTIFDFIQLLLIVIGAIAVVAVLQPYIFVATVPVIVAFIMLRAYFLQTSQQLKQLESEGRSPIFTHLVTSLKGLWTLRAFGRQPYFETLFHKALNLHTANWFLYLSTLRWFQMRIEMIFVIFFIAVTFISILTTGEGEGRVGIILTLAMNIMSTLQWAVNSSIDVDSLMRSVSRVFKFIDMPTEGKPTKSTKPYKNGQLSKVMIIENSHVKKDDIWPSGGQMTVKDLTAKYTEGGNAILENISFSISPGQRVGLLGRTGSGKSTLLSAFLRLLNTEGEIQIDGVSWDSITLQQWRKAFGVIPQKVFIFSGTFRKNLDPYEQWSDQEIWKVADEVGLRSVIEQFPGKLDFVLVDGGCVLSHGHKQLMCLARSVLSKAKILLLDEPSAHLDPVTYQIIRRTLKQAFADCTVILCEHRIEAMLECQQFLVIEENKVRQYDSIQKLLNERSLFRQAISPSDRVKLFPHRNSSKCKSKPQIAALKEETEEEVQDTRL

Cc1c(CC(=O)O)c(=O)oc2c(C)c(OCc3cccc(Br)c3)ccc12 [Compound A1]
effect on activity of CFTR [1]: did not alter the activity; also recorded: differences not significant | loop weight/length ratio (fluid absorption), distal colonic loops [2]: completely prevented the reduction in loop weight/length ratio; also recorded: blocked fluid absorption in closed colonic loops; also recorded: inhibits intestinal fluid absorption in mouse distal colon | luminal pH, distal colonic loops [2]: reduced alkalinization of luminal fluid
